# Measured values published in ChEMBL document CHEMBL1137954, “Carbonic anhydrase inhibitors: inhibition of the tumor-associated isozyme IX with fluorine-containing sulfonamides. The first subnanomolar CA IX inhibitor discovered” (Bioorg Med Chem Lett, 2004).
# How the values were obtained:
# Carbonic anhydrase 1 = Carbonic anhydrase 1 (Homo sapiens, UniProt P00915)
# Description: Inhibitory activity against human carbonic anhydrase I
# Carbonic anhydrase 9 = Carbonic anhydrase 9 (Homo sapiens, UniProt Q16790)
# Description: Inhibitory activity against human carbonic anhydrase IX
# Carbonic anhydrase 2 = Carbonic anhydrase 2 (Homo sapiens, UniProt P00918)
# Description: Inhibitory activity against human carbonic anhydrase II
# Sequence of Carbonic anhydrase 1 (P00915 whole entry): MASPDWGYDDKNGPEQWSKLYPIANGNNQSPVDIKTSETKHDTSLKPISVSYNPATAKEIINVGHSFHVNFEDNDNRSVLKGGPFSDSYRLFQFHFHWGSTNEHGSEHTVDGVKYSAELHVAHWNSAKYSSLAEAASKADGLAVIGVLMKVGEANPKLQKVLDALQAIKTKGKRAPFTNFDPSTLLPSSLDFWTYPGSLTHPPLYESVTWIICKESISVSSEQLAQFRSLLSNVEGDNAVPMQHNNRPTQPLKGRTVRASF
Ki (Carbonic anhydrase 1),Ki (Carbonic anhydrase 9),Ki (Carbonic anhydrase 2),SMILES
13 nM,4.3 nM,0.7 nM,NS(=O)(=O)c1nnc(NS(=O)(=O)c2c(F)c(F)cc(F)c2F)s1
980 nM,9.5 nM,13 nM,NS(=O)(=O)c1ccc(CNC(=O)c2c(F)c(F)cc(F)c2F)cc1
1500 nM,9.5 nM,38 nM,NS(=O)(=O)c1ccccc1NC(=O)c1c(F)c(F)cc(F)c1F
250 nM,12.6 nM,2.1 nM,NS(=O)(=O)c1nnc(NC(=O)c2c(F)c(F)cc(F)c2F)s1
975 nM,15.2 nM,16 nM,NS(=O)(=O)c1ccc(NC(=O)c2c(F)c(F)cc(F)c2F)cc1
270 nM,10.5 nM,1.4 nM,Cn1nc(S(N)(=O)=O)s/c1=N\C(=O)c1c(F)c(F)cc(F)c1F
1700 nM,0.8 nM,21 nM,NS(=O)(=O)c1cccc(NC(=O)c2c(F)c(F)cc(F)c2F)c1
900 nM,7.3 nM,12 nM,NS(=O)(=O)c1ccc(CCNC(=O)c2c(F)c(F)cc(F)c2F)cc1
6300 nM,3.2 nM,19 nM,NS(=O)(=O)c1ccc(NS(=O)(=O)c2ccc(NC(=O)c3c(F)c(F)cc(F)c3F)cc2)cc1

SMILES,Ki (Carbonic anhydrase 1),Ki (Carbonic anhydrase 9),Ki (Carbonic anhydrase 2)
NS(=O)(=O)c1ccc(CNS(=O)(=O)c2c(F)c(F)cc(F)c2F)cc1,860 nM,8.5 nM,12 nM
NS(=O)(=O)c1ccc(CCNS(=O)(=O)c2c(F)c(F)cc(F)c2F)cc1,750 nM,7 nM,9 nM
NS(=O)(=O)c1ccc(CNS(=O)(=O)c2ccc(NC(=O)c3c(F)c(F)cc(F)c3F)cc2)cc1,6100 nM,–,15 nM
NS(=O)(=O)c1ccc(NC(=O)c2c(F)c(F)cc(F)c2F)c(Cl)c1,1080 nM,16 nM,76 nM
NS(=O)(=O)c1ccc(NC(=O)c2c(F)c(F)cc(F)c2F)c(F)c1,760 nM,24 nM,1.5 nM
NS(=O)(=O)c1ccc(NC(=O)c2c(F)c(F)cc(F)c2F)c(Br)c1,1870 nM,4.8 nM,84 nM
NS(=O)(=O)c1ccc(CCNS(=O)(=O)c2ccc(NC(=O)c3c(F)c(F)cc(F)c3F)cc2)cc1,6000 nM,7.6 nM,13 nM
